# “And” between values parts separate entries of the source, which are not always exact repeats. Identical values can stand only once.
# Assays:
# [1] = First study: sublingual pump spray in angina patients intolerant to standard 400 mcg NTG spray (intolerance and anginal pain relief); format: in vivo; conditions: single 200 mcg NTG spray dosage sublingually, Nitrolingual solution diluted fifty percent with placebo solution; 21 patients
# Protocol: The first study identifies 21 patients experiencing intolerance to a standard “Nitrolingual”® NTG 400 mcg spray dosage delivered sublingually.
# The “Nitrolingual”® solution described above was diluted fifty percent with a pharmacologically neutral solution placebo obtained from the same manufacturer, forming a combination solution. […] Each of the patients was then provided with a pump spray containing the combination solution which would limit each single spray dosage to 200 mcg NTG.
# Next, isovolumic amounts of “Nitrolingual”® Pumpspray solution and 1% Menthol solution were mixed and the combination solution was provided to patients as a pump spray.
# [2] = Second study: exercise stress tests in patients with reproducible exertional angina; format: in vivo
# Description: The second study pertained to five patients that experienced reproducible exertional angina. The study comprised administering exercise stress tests for each patient on three consecutive days. […]
# For each patient, the stress test was stopped with the onset of angina. The objective evidence of ischemia was indicated by the degree of S-T segment depression and presence of segmental wall abnormalities documented by echocardiographic study performed immediately after the exercise stress test.
# All tests monitored angina with exercise, exercise tolerance, and the degree of S-T segment depression on the ECG, when: 1) no medication was administered (Table 1); […]); and, 3) a solution containing isovolumic amounts of NTG and Menthol […]
smiles,measurement,setting,value
"O=[N+]([O-])OCC(CO[N+](=O)[O-])O[N+](=O)[O-] [NTG, Nitroglycerin]",patients that did not experience intolerance,[1],90%
same,patients that received satisfactory relief from anginal pain within two minutes,[1],19%
same,Heart Rate at Peak,"[2]; 400 mg NTG administered prior to exercise, one line per patient (1-5)",120 and 128 and 140 and 112 and 130
same,Duration of Exercise,"[2]; 400 mg NTG administered prior to exercise, test stopped at onset of angina, one line per patient (1-5)",5 min and 6 min and 6.5 min and 4.5 min and 7.5 min
same,side effects observed,"[2]; 400 mcg NTG by itself or 200 mcg NTG in combination with Menthol, before exercise",No side effects were observed

# From patent publication US6559180B2, “Nitroglycerin-menthol potentiation for treatment of angina” (priority 2001, dated 2003)
